Source: ChEMBL document CHEMBL6114979, “Discovery of 3-indolylbenzoquinone derivatives with therapeutic potential for breast cancer” (Bioorg Med Chem, 2025)
Converted amounts (≈) assume the structure as drawn. Where a name gives a salt, the structure may show the parent alone.

Legend:
MDA-MB-231 [1] = assay: Antiproliferative activity against human MDA-MB-231 cells assessed as inhibition of cell proliferation incubated for 48 hrs by CCK-8 assay; assay type: functional, cell-based; settings: MDA-MB-231, 48 h
A549 = assay: Antiproliferative activity against human A549 cells assessed as inhibition of cell proliferation incubated for 48 hrs by CCK-8 assay; assay type: functional, cell-based; settings: A549, 48 h
HepG2 = assay: Antiproliferative activity against human HepG2 cells assessed as inhibition of cell proliferation incubated for 48 hrs by CCK-8 assay; assay type: functional, cell-based; settings: HepG2, 48 h
[2] = Solubility of compound in water; assay type: physicochemical
[3] = Solubility of compound in 0.1 M HCL; assay type: physicochemical
[4] = Toxicity in female Balb/c mouse implanted with mouse 4T1 cells assessed as change in body weight at 10 mg/kg, ip administered every 2 days; assay type: organism-based; settings: in vivo, 48 h
[5] = Toxicity in female Balb/c mouse implanted with mouse 4T1 cells assessed as appearance of spleen wrinkling at 10 mg/kg, ip administered once every 2 days for 14 days; assay type: organism-based; settings: in vivo, 48 h, time 2 day
[6] = Toxicity in female Balb/c mouse implanted with mouse 4T1 cells assessed as appearance of infiltered tumor cells in adipose tissue at 10 mg/kg, ip administered once every 2 days for 14 days by H and E staining based analysis; assay type: organism-based; settings: in vivo, 336 h, time 14 day
[7] = Toxicity in female Balb/c mouse implanted with mouse 4T1 cells assessed as appearance of irregular necrotic foci in tumor area at 10 mg/kg, ip administered once every 2 days for 14 days by H and E staining based analysis; assay type: organism-based; settings: in vivo, 336 h, time 14 day
[8] = Toxicity in female Balb/c mouse implanted with mouse 4T1 cells assessed as appearance of tumor metastasis in spleen at 10 mg/kg, ip administered once every 2 days for 14 days by H and E staining based analysis; assay type: organism-based; settings: in vivo, 336 h, time 14 day
[9] = Toxicity in female Balb/c mouse implanted with mouse 4T1 cells assessed as appearance of tumor metastasis in liver at 10 mg/kg, ip administered once every 2 days for 14 days by H and E staining based analysis; assay type: organism-based; settings: in vivo, 336 h, time 14 day
[10] = Toxicity in female Balb/c mouse implanted with mouse 4T1 cells assessed as appearance of tumor metastasis in lung at 10 mg/kg, ip administered once every 2 days for 14 days by H and E staining based analysis; assay type: organism-based; settings: in vivo, 336 h, time 14 day
[11] = Toxicity in female Balb/c mouse implanted with mouse 4T1 cells assessed as appearance of tumor metastasis in kidney at 10 mg/kg, ip administered once every 2 days for 14 days by H and E staining based analysis; assay type: organism-based; settings: in vivo, 336 h, time 14 day
MDA-MB-231 [12] = assay: Induction of apoptosis in human MDA-MB-231 cells assessed as viable cells at 1 uM incubated for 24 hrs by Annexin-V/PI staining based flow cytometric analysis (reference value: 93.37%); assay type: functional; settings: read-out: Activity
MDA-MB-231 [13] = assay: Induction of apoptosis in human MDA-MB-231 cells assessed as early apoptotic cells at 1 uM incubated for 24 hrs by Annexin-V/PI staining based flow cytometric analysis (reference value: 2.69%); assay type: functional
MDA-MB-231 [14] = assay: Induction of apoptosis in human MDA-MB-231 cells assessed as late apoptotic cells at 1 uM incubated for 24 hrs by Annexin-V/PI staining based flow cytometric analysis (reference value: 3.24%); assay type: functional
MDA-MB-231 [15] = assay: Induction of apoptosis in human MDA-MB-231 cells assessed as necrotic cells at 1 uM incubated for 24 hrs by Annexin-V/PI staining based flow cytometric analysis (reference value: 0.71%); assay type: functional
MDA-MB-231 [16] = assay: Induction of cell cycle arrest in human MDA-MB-231 cells assessed as accumulation of cells at G0/G1 phase at 1 uM incubated for 24 hrs by PI staining based flow cytometric analysis (reference value: 57.31%); assay type: functional
MDA-MB-231 [17] = assay: Induction of cell cycle arrest in human MDA-MB-231 cells assessed as accumulation of cells at G2/M phase at 1 uM incubated for 24 hrs by PI staining based flow cytometric analysis (reference value: 33.98%); assay type: functional
MDA-MB-231 [18] = assay: Induction of cell cycle arrest in human MDA-MB-231 cells assessed as accumulation of cells at S phase at 1 uM incubated for 24 hrs by PI staining based flow cytometric analysis (reference value: 8.71%); assay type: functional

Row | SMILES | IC50 (MDA-MB-231 [1]) [µM] | IC50 (A549) [µM] | IC50 (HepG2) [µM] | other results
1 | Cc1[nH]c2ccccc2c1C1=C(F)C(=O)C(F)=C(F)C1=O | 8.57 | 14.2 | 12.4 | 
2 | Cc1[nH]c2ccccc2c1C1=C(N2CCN(C=O)CC2)C(=O)C(F)=C(N2CCN(C=O)CC2)C1=O | 7.4 | 12.1 | 8.13 | 
3 | Cc1[nH]c2ccccc2c1C1=C(F)C(=O)C(F)=C(NCCNC(=O)OC(C)(C)C)C1=O | 7.18 | 4.76 | 4.91 | 
4 | C#CCNC1=C(F)C(=O)C(NCC#C)=C(c2c(C)[nH]c3ccccc23)C1=O | 15.5 | 5.21 | 14.2 | 
5 | Cc1[nH]c2ccccc2c1C1=C(Cl)C(=O)C(Cl)=C(N2CCOCC2)C1=O |  |  |  | solubility [2]: 9 µg/mL (≈ 23 µM); solubility [3]: 6 µg/mL (≈ 15.3 µM)
6 | Cc1[nH]c2ccccc2c1C1=C(N2CCOCC2)C(=O)C(F)=C(N2CCOCC2)C1=O | 8.16 | 15.4 | 16.1 | 
7 | Cc1[nH]c2ccccc2c1C1=C(NC2CC2)C(=O)C(F)=C(NC2CC2)C1=O | 5.49 | 4.93 | 4.19 | 
8 | Cc1[nH]c2ccccc2c1C1=C(F)C(=O)C(F)=C(N2CCN(C=O)CC2)C1=O | 8 | 53.1 | 5.43 | 
9 | Cc1[nH]c2ccccc2c1C1=C(N2CCCCC2)C(=O)C(F)=C(N2CCCCC2)C1=O | 4.41 | 6.8 | 4.22 | 
10 | Cc1[nH]c2ccccc2c1C1=C(F)C(=O)C(c2c(C)[nH]c3ccccc23)=C(N2CCOCC2)C1=O | 8.9 | 10.2 | 12.4 | 
11 | Cc1[nH]c2ccccc2c1C1=C(NCCNC(=O)OC(C)(C)C)C(=O)C(F)=C(NCCNC(=O)OC(C)(C)C)C1=O | 10.2 | 13.8 | 13.1 | 
12 | C#CCNC1=C(F)C(=O)C(c2c(C)[nH]c3ccccc23)=C(F)C1=O | 7.82 | > 100 | 50.6 | 
13 | C#CCNC1=C(F)C(=O)C(F)=C(c2c(C)[nH]c3ccccc23)C1=O | 6.14 | > 100 | 6.43 | 
14 | COc1cccc2c1C(=O)c1c(O)c3c(c(O)c1C2=O)C[C@@](O)(C(=O)CO)C[C@@H]3O[C@H]1C[C@H](N)[C@H](O)[C@H](C)O1 [DOXORUBICIN HYDROCHLORIDE] | 2.34 | 0.3 |  | Activity [4]: Toxic; Activity [5]: Toxic; Activity [6]: Toxic; Activity [7]: Toxic; Activity [8]: Toxic; Activity [9]: Toxic; Activity [10]: Toxic; Activity [11]: Toxic
15 | Cc1[nH]c2ccccc2c1C1=C(F)C(=O)C(c2c(C)[nH]c3ccccc23)=C(F)C1=O | 10.8 | 15.7 | 11.3 | 
16 | Cc1[nH]c2ccccc2c1C1=C(F)C(=O)C(F)=C(N2CCCCC2)C1=O | 8.26 | 32.9 | 14.5 | 
17 | Cc1[nH]c2ccccc2c1C1=C(F)C(=O)C(N2CCOCC2)=C(F)C1=O | 4.27 | 14.2 | 7.78 | 
18 | COC(=O)/C=C/C(=O)OCCCN1CCN(C2=C(F)C(=O)C(c3c(C)[nH]c4ccccc34)=C(N3CCN(CCCOC(=O)/C=C/C(=O)OC)CC3)C2=O)CC1 | 13.5 | > 100 | 61.4 | 
19 | COC(=O)/C=C/C(=O)OCCCN1CCN(C2=C(F)C(=O)C(F)=C(c3c(C)[nH]c4ccccc34)C2=O)CC1 | 6.97 | 6.79 | 4.6 | 
20 | Cc1[nH]c2ccccc2c1C1=C(N2CCOCC2)C(=O)C(c2c(C)[nH]c3ccccc23)=C(N2CCOCC2)C1=O | > 100 | 10.8 | 11.3 | 
21 | COC(=O)/C=C/OCCNC1=C(F)C(=O)C(c2c(C)[nH]c3ccccc23)=C(NCCOC(=O)/C=C/C(=O)OC)C1=O | 12 | 7.02 | 4.44 | 
22 | Cc1[nH]c2ccccc2c1C1=C(F)C(=O)C(F)=C(N2CCNCC2)C1=O | 4.65 | 12.5 | 8.15 | 
23 | COC(=O)/C=C/C(=O)OCCNC1=C(F)C(=O)C(c2c(C)[nH]c3ccccc23)=C(F)C1=O | 6.47 | 6.31 | 25 | 
24 | COc1ccc(/C=C\c2cc(OC)c(OC)c(OC)c2)cc1O [COMBRETASTATIN A4] |  |  |  | viability at 1 µM (MDA-MB-231 [12]): 79.8%; Activity (MDA-MB-231 [13]): 10.22%; Activity (MDA-MB-231 [14]): 8.43%; Activity (MDA-MB-231 [15]): 1.55%; Activity (MDA-MB-231 [16]): 39.37%; Activity (MDA-MB-231 [17]): 55.89%; Activity (MDA-MB-231 [18]): 9.19%
25 | Cc1[nH]c2ccccc2c1C1=C(F)C(=O)C(F)=C(NC2CC2)C1=O | 7.96 | 4.46 | 10.5 | 
